Experimental data published in patent US10689354B2, “Aminoazole derivative” (Teijin Pharma Limited, priority 2015, dated 2020).

Experiments:
[1] = molecular target: T1, androgen receptor (AR-LBD) (Rattus norvegicus, UniProt P15207); test: Evaluation of androgen receptor affinity (PolarScreen Androgen Receptor Competitor Assay Kit, Red; fluorescence polarization); conditions: 22° C. for 5 hours, relative to binding rate of 1 μM DHT, read-out: AR affinity (pEC50) (converted)
T1 construct: 5 μL of 2×AR-LBD/Fluoromone AL Red Complex contained in the kit; purchased Invitrogen
T1 sequence (P15207 651-882 limits assumed): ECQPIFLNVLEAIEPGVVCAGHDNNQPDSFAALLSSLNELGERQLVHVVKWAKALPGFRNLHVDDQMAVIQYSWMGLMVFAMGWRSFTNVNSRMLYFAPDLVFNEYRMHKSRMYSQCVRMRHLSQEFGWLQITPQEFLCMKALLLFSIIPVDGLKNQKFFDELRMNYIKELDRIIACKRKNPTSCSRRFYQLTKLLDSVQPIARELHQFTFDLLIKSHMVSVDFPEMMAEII
Outline: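 Fluorescence polarization competition assay: compound was incubated in duplicate with the kit's AR-LBD/Fluoromone AL Red complex for 5 h at 22 °C. Binding was expressed relative to 1 μM DHT, and pEC50 was derived by 4-parameter fit.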

human androgen receptor = molecular target: T2, human androgen receptor (Homo sapiens, UniProt P10275); test: Reporter assay of an androgen receptor responsive sequence (luciferase, transiently transfected HEK293 cells); type: cell-based; conditions: 24 hours incubation, relative to activity of 100 nM DHT, read-out: AR transcriptive activity (pEC50) (converted)
T2 construct: expressed in transfected cells; host or cells: HEK293
T2 sequence (P10275 1-920): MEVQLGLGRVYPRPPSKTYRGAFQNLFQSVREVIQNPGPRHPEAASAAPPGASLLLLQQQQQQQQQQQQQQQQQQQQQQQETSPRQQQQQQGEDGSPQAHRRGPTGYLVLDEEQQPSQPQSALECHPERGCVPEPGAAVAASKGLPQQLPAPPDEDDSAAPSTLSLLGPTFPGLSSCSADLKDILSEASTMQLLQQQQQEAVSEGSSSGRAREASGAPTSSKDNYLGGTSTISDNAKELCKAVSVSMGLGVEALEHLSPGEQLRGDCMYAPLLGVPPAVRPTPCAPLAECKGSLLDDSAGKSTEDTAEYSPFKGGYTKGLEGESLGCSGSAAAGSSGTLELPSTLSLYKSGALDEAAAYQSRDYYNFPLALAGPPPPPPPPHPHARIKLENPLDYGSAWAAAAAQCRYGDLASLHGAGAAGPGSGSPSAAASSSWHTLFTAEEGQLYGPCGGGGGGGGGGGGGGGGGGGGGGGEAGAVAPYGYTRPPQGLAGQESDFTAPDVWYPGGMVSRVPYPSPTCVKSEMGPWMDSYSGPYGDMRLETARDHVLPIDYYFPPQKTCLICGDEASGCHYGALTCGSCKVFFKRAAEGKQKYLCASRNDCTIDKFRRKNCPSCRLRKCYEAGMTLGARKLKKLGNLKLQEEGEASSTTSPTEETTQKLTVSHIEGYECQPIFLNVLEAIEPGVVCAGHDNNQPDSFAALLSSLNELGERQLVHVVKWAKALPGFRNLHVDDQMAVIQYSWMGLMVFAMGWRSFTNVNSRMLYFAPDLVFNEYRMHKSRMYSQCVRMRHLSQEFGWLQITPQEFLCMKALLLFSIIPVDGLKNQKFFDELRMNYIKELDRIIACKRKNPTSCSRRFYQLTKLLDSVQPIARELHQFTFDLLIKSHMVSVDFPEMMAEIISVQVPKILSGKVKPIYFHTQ
Outline: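 HEK293 cells transiently transfected for 3 h with ARE-firefly luciferase, full-length human AR and TK-Renilla plasmids, then exposed to compound for 24 h at 37 °C in 5% charcoal-treated FBS/DMEM. Dual-Glo luminescence read; pEC50 from 4-parameter fit relative to 100 nM DHT.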

EC50 [1] [nM]	EC50 (human androgen receptor) [nM]	SMILES
50.1	1260	Cc1oc(N(CCc2ccc(Cl)cc2)Cc2ccccc2OC(F)F)nc1C(=O)NS(C)(=O)=O [Compound 543, 2-[2-(4-chlorophenyl)ethyl-[[2-(difluoromethoxy)phenyl]methyl]amino]-5-methyl-N-methylsulfonyl-oxazole-4-carboxamide]
39.8	316	Cc1oc(N(CCc2ccc(Cl)cc2)Cc2ccc(OC(F)(F)F)cc2)nc1C(=O)NS(C)(=O)=O [Compound 544, 2-[2-(4-chlorophenyl)ethyl-[[4-(trifluoromethoxy)phenyl]methyl]amino]-5-methyl-N-methylsulfonyl-oxazole-4-carboxamide]
39.8	158	Cc1oc(N(CCc2ccc(Cl)cc2)Cc2ccc3ncsc3c2)nc1C(=O)NS(C)(=O)=O [Compound 545, 2-[1,3-benzothiazol-6-ylmethyl-[2-(4-chlorophenyl)ethyl]amino]-5-methyl-N-methylsulfonyl-oxazole-4-carboxamide]
200	1580	Cc1nc(CN(CCc2ccc(Cl)cc2)c2nc(C(=O)NS(C)(=O)=O)c(C)o2)cs1 [Compound 546, 2-[2-(4-chlorophenyl)ethyl-[(2-methylthiazol-4-yl)methyl]amino]-5-methyl-N-methylsulfonyl-oxazole-4-carboxamide]
25.1	126	Cc1oc(N(CCc2ccc(C#N)cc2)Cc2ccc(Cl)cc2)nc1C(=O)NS(C)(=O)=O [Compound 548, 2-[(4-chlorophenyl)methyl-[2-(4-cyanophenyl)ethyl]amino]-5-methyl-N-methylsulfonyl-oxazole-4-carboxamide]
63.1	1260	Cc1oc(N(CCc2ccc(Cl)cc2)Cc2ccc(Cl)cn2)nc1C(=O)NS(C)(=O)=O [Compound 549, 2-[2-(4-chlorophenyl)ethyl-[(5-chloro-2-pyridyl)methyl]amino]-5-methyl-N-methylsulfonyl-oxazole-4-carboxamide]

Further lines, the compound ahead of its results:

SMILES	EC50 [1] [nM]	EC50 (human androgen receptor) [nM]
Cc1sc(N(Cc2ncc(F)cc2F)c2ccc(C#N)cc2)nc1C(=O)NS(C)(=O)=O [Compound 527, 2-[4-cyano-N-[(3,5-difluoro-2-pyridyl)methyl]anilino]-5-methyl-N-methylsulfonyl-thiazole-4-carboxamide]	501	1000
Cc1sc(N(Cc2ccc(Br)c(Cl)c2)c2ccc(C#N)cc2)nc1C(=O)NS(C)(=O)=O [Compound 528, 2-[N-[(4-bromo-3-chloro-phenyl)methyl]-4-cyano-anilino]-5-methyl-N-methylsulfonyl-thiazole-4-carboxamide]	> 2000	7940
Cc1sc(N(Cc2cc3ccccc3cn2)c2ccc(C#N)cc2)nc1C(=O)NS(C)(=O)=O [Compound 529, 2-[4-cyano-N-(3-isoquinolylmethyl)anilino]-5-methyl-N-methylsulfonyl-thiazole-4-carboxamide]	398	316
Cc1sc(N(Cc2cnc(C(F)(F)F)c(Cl)c2)c2ccc(C#N)cc2)nc1C(=O)NS(C)(=O)=O [Compound 530, 2-[N-[[5-chloro-6-(trifluoromethyl)-3-pyridyl]methyl]-4-cyano-anilino]-5-methyl-N-methylsulfonyl-thiazole-4-carboxamide]	50.1	501
COCCCS(=O)(=O)NC(=O)c1nc(N(Cc2cnc(C(F)(F)F)c(Cl)c2)c2ccc(C#N)cc2)sc1C [Compound 531, 2-[N-[[5-chloro-6-(trifluoromethyl)-3-pyridyl]methyl]-4-cyano-anilino]-N-(3-methoxypropylsulfonyl)-5-methyl-thiazole-4-carboxamide]	100	1000
COCCCS(=O)(=O)NC(=O)c1nc(N(Cc2cnc(C(F)(F)F)c(OC)c2)c2ccc(C#N)cc2)sc1C [Compound 532, 2-[4-cyano-N-[[5-methoxy-6-(trifluoromethyl)-3-pyridyl]methyl]anilino]-N-(3-methoxypropylsulfonyl)-5-methyl-thiazole-4-carboxamide]	200	1580
COCCCS(=O)(=O)NC(=O)c1nc(N(Cc2cnc(C(F)(F)F)c(F)c2)c2ccc(C#N)cc2)sc1C [Compound 533, 2-[4-cyano-N-[[5-fluoro-6-(trifluoromethyl)-3-pyridyl]methyl]anilino]-N-(3-methoxypropylsulfonyl)-5-methyl-thiazole-4-carboxamide]	158	794
COCCCS(=O)(=O)NC(=O)c1nc(N(Cc2ccc(C(F)(F)F)c(C#N)c2)c2ccc(C#N)cc2)sc1C [Compound 534, 2-[4-cyano-N-[[3-cyano-4-(trifluoromethyl)phenyl]methyl]anilino]-N-(3-methoxypropylsulfonyl)-5-methyl-thiazole-4-carboxamide]	100	158
COCCCS(=O)(=O)NC(=O)c1nc(N(Cc2ncc(Br)cc2F)c2ccc(C#N)cc2)sc1C [Compound 535, 2-[N-[(5-bromo-3-fluoro-2-pyridyl)methyl]-4-cyano-anilino]-N-(3-methoxypropylsulfonyl)-5-methyl-thiazole-4-carboxamide]	126	316
Cc1sc(N(Cc2ccc(OC(F)F)c(Cl)c2)c2ccc(C#N)cc2)nc1C(=O)NS(C)(=O)=O [Compound 536, 2-[N-[[3-chloro-4-(difluoromethoxy)phenyl]methyl]-4-cyano-anilino]-5-methyl-N-methylsulfonyl-thiazole-4-carboxamide]	20	39.8
Cc1sc(N(Cc2cnc(C(F)(F)F)cn2)c2ccc(C#N)cc2)nc1C(=O)NS(C)(=O)=O [Compound 537, 2-[4-cyano-N-[[5-(trifluoromethyl)pyrazin-2-yl]methyl]anilino]-5-methyl-N-methylsulfonyl-thiazole-4-carboxamide]	316	631
Cc1sc(N(Cc2ccnc(C(F)(F)F)c2)c2ccc(C#N)cc2)nc1C(=O)NS(C)(=O)=O [Compound 538, 2-[4-cyano-N-[[2-(trifluoromethyl)-4-pyridyl]methyl]anilino]-5-methyl-N-methylsulfonyl-thiazole-4-carboxamide]	398	3980
COCCCCS(=O)(=O)NC(=O)c1nc(N(Cc2ccc(OC(F)(F)F)cc2)c2ccc(C#N)cc2)sc1C [Compound 539, 2-[4-cyano-N-[[4-(trifluoromethoxy)phenyl]methyl]anilino]-N-(4-methoxybutylsulfonyl)-5-methyl-thiazole-4-carboxamide]	15.8	158
COCCOCCCS(=O)(=O)NC(=O)c1nc(N(Cc2ccc(OC(F)(F)F)cc2)c2ccc(C#N)cc2)sc1C [Compound 540, 2-[4-cyano-N-[[4-(trifluoromethoxy)phenyl]methyl]anilino]-N-[3-(2-methoxyethoxy)propylsulfonyl]-5-methyl-thiazole-4-carboxamide]	316	> 10000
Cc1oc(N(CCc2ccc(Cl)cc2)Cc2cccc(OC(F)(F)F)c2)nc1C(=O)NS(C)(=O)=O [Compound 542, 2-[2-(4-chlorophenyl)ethyl-[[3-(trifluoromethoxy)phenyl]methyl]amino]-5-methyl-N-methylsulfonyl-oxazole-4-carboxamide]	79.4	501
